Series [1] relates to MOG induced IFN-γ secretion in splenocyte. The series is described as follows: MOG induced IFN-γ secretion in splenocyte isolated from mice of EAE model (ELISA). The class given is cell-based, C57BL/6 mice. The following applies: Mus musculus, 20 μg/ml MOG peptide, 48 hours; for inhibition at 300 µM: concentration 300 μM; for inhibition at 200 µM: concentration 200 μM; for inhibition at 100 µM: concentration 100 μM. On the procedure:
(§1) EAE was induced in C57BL/6 mice. The mice were immunized on Day 0 by subcutaneous injection with 200 μg of myelin oligodendrocyte glycoprotein (MOG) in […] containing 400 μg of heat-killed Mycobaterium tuberculosis H37Ra. Pertussis toxin (500 ng) was intraperitoneally injected on Day 0 and Day 2 after the mice were immunized with the emulsion. The mice were sacrifice on Day 30 post-immunization. Spleens of the mice were harvest and then splenocytes were isolated and cultured in presence or absence of the 20 μg/ml MOG peptide in 10% FBS RPMI1640 medium. Testing compound was added to the culture and maintained at 37° C. 5% CO2 for 48 hours. The concentrations of IFN-γ and IL-2 in the supernatant of the culture were determined by ELISA according to the manufacturer's instructions.

The test system of series [2] is MOG induced IL-2 secretion in splenocyte. Briefly: MOG induced IL-2 secretion in splenocyte isolated from mice of EAE model (ELISA). It is filed as cell-based, C57BL/6 mice. To be noted: Mus musculus, 20 μg/ml MOG peptide, 48 hours; for inhibition at 300 µM: concentration 300 μM; for inhibition at 200 µM: concentration 200 μM; for inhibition at 100 µM: concentration 100 μM. On the procedure:
as §1
In general terms: An ELISA detects its analyte on a solid surface through an enzyme-linked reagent.

Series [3] deals with EAE induced mice. The series is described as follows: Therapeutic administration experiment in EAE induced mice, EAE score. It is filed as in vivo, C57BL/6 mice. The following applies: 14 days after onset.
The test system of series [4] is LPS-induced IL-6 expression in BV-2 cells. Briefly: LPS-induced IL-6 expression in BV-2 cells (IL-6 ELISA). It is filed as cell-based. The following applies: Mus musculus, compound 1 hour then LPS 100 ng/mL, 24 hours. On the procedure:
(§2) BV-2 cells (8×10^3 cells/mL) were seeded in a 96-well plate cultured under 37° C., 5% CO2 overnight. The cells were divided into a naïve group (without any treatment), a control group (only treated with LPS) and experimental groups (treated with LPS and a testing compound).
(§3) The supernatant in the well was removed. After that, different concentrations of a testing compound was added to the cells to react with the cells for 1 hour (culture medium was added to the cells for a control group), and then LPS (100 ng/mL) was added to the cell.
After reacting for 24 hours, the supernatant in the plate was taken and IL-6 expressing amount was detected by Mouse IL-6 ELISA Ready-SET-Go (Invitrogen; Cat. No. 88-7064-88) according to the manufacturer's recommended procedure.
(§4) CC50 value for cell viability of a testing compound and IC50 value for IL-6 expression of a testing compound were calculated based on cell viabilities at different concentrations of the testing compound and IL-6 expression amounts of the cells at different concentrations of the testing compound, respectively.

Series [5] in a line: Cell viability of BV-2 cells (MTT). To be noted: mouse, LPS 100 ng/mL. The class given is cell-based. On the procedure: as §2, §3
Moreover, 50 μl of culturing medium containing MTT (0.5 mg/mL) was added to the cell part in the plate and cultured under 37° C. and 5% CO2 for 90 minutes, and then 150 μL DMSO was added to the plate and the plate was shaken for 5-10 minutes. Finally, OD570 was read by a continuous wavelength microplate analyzer, and cell viability was calculated using the following formula: Cell viability (%)=(OD value of the experimental group/OD value of the control group)×100.
as §4

Series [6] deals with spinal cords of the EAE induced mice. Briefly: Histology of spinal cord lesions in EAE induced mice (H&E, Luxol fast blue). The class given is in vivo, C57BL/6 mice. The following applies: 100 mg/kg three times a day, day 15 after onset. As for the experimental part:
The mice were euthanized at day 15 post to onset of EAE. Spinal cord was removed and fixed in 10% phosphate-buffered formaldehyde. Paraffin-embedded 3 μm-thick cross sections of spinal cord were stained with hematoxylin and eosin in order to confirm tissue lesion. Another slides were stained with Luxol fast blue for examination of demyelination. Lesions were evaluated based on demyelination, inflammation, axonal swelling and gliosis which are scored based on the criteria shown in Table 2: […]

Series [7] concerns EAE induced mice. Briefly: Prophylaxis administration experiment in EAE induced mice, EAE score. The class given is in vivo, C57BL/6 mice. To be noted: 100 mg/kg one time a day from Day 7 after induction, 14 days; vs vehicle (FIG. 10).

One may read the inhibition as the percentage by which the read-out fell short of the control. As a reminder, the IC50 is the concentration that gives 50% inhibition. The CC50 is the concentration giving 50% cytotoxicity.

For the compound `CC1=CCC(C(C)(C)O)CC1O` (stereo not drawn) [SK0, (+)(−) trans-Sobrerol, reference compound], the values for the inhibition at 300 µM in series [1] and in series [2] were 10% and 16%, respectively. Also, the “EAE score (symptoms of EAE)” value with EAE induced mice [3] (100 mg/kg one time a day, 15, 50, 100 mg/kg BID, vs vehicle (FIGS. 8A, 8B)) is reported as “significantly alleviating symptoms of EAE”.

In the case of `CC1=CC[C@H](C(C)(C)O)C[C@H]1O` [SK1, (+) trans-Sobrerol], the inhibition at 200 µM in series [1] turned out to be 24%; in series [2] it was 0%.

Turning to `CC1=CC[C@@H](C(C)(C)O)C[C@@H]1O` [SK2, (−) trans-sobrerol], in series [4], the IC50 is 183 ± 21.8 µM. Further, the CC50 at 24 h in series [5] is more than 200 µM. For the same compound, the inhibition at 200 µM was 34% in series [1] and 0% in series [2]. The “EAE score (symptoms of EAE)” value in the series on EAE induced mice [3] (30, 100 mg/kg one time a day, 50, 100 mg/kg BID, 10-100 mg/kg TID, vs vehicle (FIGS. 5A-5C)) is on record as “significantly alleviating symptoms of EAE”; with EAE induced mice [7], “significantly alleviating symptoms of EAE”. Further, the “axonal swelling in spinal cords” value in series [6] (vs vehicle (FIG. 7B)) is “effectively alleviating”. For the same compound, in series [6] (vs vehicle (FIG. 7C)), the “inflammation in spinal cords” value is recorded as “effectively alleviating”. The “gliosis in spinal cords” value in series [6] (vs vehicle (FIG. 7D)) is given as “effectively alleviating”. For the same compound, in series [6] (vs vehicle (FIGS. 6, 7A)), the “demyelination in spinal cords” value is recorded as “effectively alleviating”.

In series [4], `CC1=CC[C@@H](C(C)(C)O)C[C@@H]1OC(=O)CCc1ccccc1` [TMUS-0124-4c] registered an IC50 of 38.2 µM. The CC50 at 24 h in series [5] was more than 100 µM. The inhibition at 200 µM in series [1] was determined as 78%; in series [2], 23%.

In turn, `CC1=CC[C@@H](C(C)(C)O)C[C@@H]1OC(=O)c1ccc([N+](=O)[O-])cc1` [TMUS-0124-4d] gave an IC50 in series [4] of 48.1 µM. This compound returned a CC50 at 24 h in series [5] of more than 100 µM. Besides, the inhibition at 200 µM in series [1] came to 79%; in series [2], 22%.

For `COc1ccc(C(=O)O[C@H]2C[C@H](C(C)(C)O)CC=C2C)cc1` [TMUS-0124-4e], in series [4], it took 50.8 µM to reach half-maximal inhibition (IC50). Also, the CC50 at 24 h in series [5] is more than 100 µM. For the same compound, the inhibition at 100 µM was found to be 86% in series [1] and 59% in series [2].

In series [4], `CCCCCC(=O)O[C@H]1C[C@H](C(C)(C)O)CC=C1C` [TMUS-0124-4f] gave a half-maximal inhibitory concentration (IC50) of 38 µM. In series [5], this compound returned a CC50 at 24 h of more than 100 µM. In addition, the inhibition at 200 µM in series [1] is 59%; in series [2], 8%.

In series [4], `CC1CCC(C(C)(C)O)CC1=O` (stereo not shown) [TMUS-0503-H2] gave an IC50 of less than 10 µM. Also, the CC50 at 24 h in series [5] is more than 100 µM. Also, the inhibition at 100 µM came out at 33% in series [1] and 16% in series [2].

As for `C[C@H]1CC[C@H](C(C)(C)O)C[C@H]1O` [TMUS-0503-H3], the IC50 in series [4] was in the range of 30 to 100 µM. Also, the CC50 at 24 h in series [5] is more than 100 µM.

`C[C@@H]1CC[C@H](C(C)(C)O)C[C@H]1O` [TMUS-0503-H4] yielded an IC50 in series [4] of 30 to 100 µM. The CC50 at 24 h in series [5] is more than 100 µM. Also, the inhibition at 300 µM was 42% in series [1] and 19% in series [2].

With `CC1=CC[C@@H](C(C)(C)O)C[C@@H]1OCc1ccccc1` [TMUS-0503-b1], the IC50 in series [4] is less than 10 µM. This compound yielded a CC50 at 24 h in series [5] of more than 100 µM. For the same compound, the figures for the inhibition at 300 µM in series [1] and in series [2] were 20% and 15%, respectively.

Take `CC1=CCC2CC1OC2(C)C` (stereo not shown) [TMUS-0503-c1]: in series [4], the half-inhibitory concentration (IC50) is 30 to 100 µM. For the same compound, the CC50 at 24 h in series [5] was more than 100 µM. Moreover, the inhibition at 300 µM came out at 23% in series [1] and 22% in series [2].

For `CC1(C)OC2CC1CC1OC21C` (stereo not shown) [TMUS-0503-c2], the IC50 in series [4] is 30 to 100 µM. In series [5], the CC50 at 24 h was more than 100 µM. The inhibition at 100 µM in series [1] is 31%; in series [2], 13%.

For `CO[C@H]1C[C@H](C(C)(C)O)CC=C1C` [TMUS-0503-m1], the IC50 in series [4] was less than 10 µM. Besides, in series [5], the CC50 at 24 h was more than 100 µM. Moreover, the results for the inhibition at 100 µM in series [1] and in series [2] were 17% and 21%, respectively.

Compound `CC1=CCC(C(C)(C)O)CC1=O` (stereo not shown) [TMUS-0503-o1] registered an IC50 in series [4] of less than 10 µM. For the same compound, the CC50 at 24 h in series [5] is more than 100 µM. Further, the inhibition at 200 µM in series [1] is 56%; in series [2], 40%.

Values taken from patent US11400054B2, “Method for treating an autoimmune neurological disease and/or neurodegenerative disease and pharmaceutical formulations for a liquid dosage form and a controlled release dosage form” (INDUSTRIAL TECHNOLOGY RESEARCH INSTITUTE, priority 2017, dated 2022).
